The record followed here is US20240140958A1, “FUSED QUADRACYCLIC COMPOUNDS, COMPOSITIONS AND USES THEREOF” (Tabomedex Biosciences, Inc., priority 2021, published 2024).

The pIC50 is −log10 of the IC50, conventionally taken in molar units.

pIC50: −log10 of the molar value.

One test relates to THP-1 cells. The experiment in a line: THP-1 cell assay: LPS-stimulated pSer78-Hsp27 ELISA. In kind it is cell-based. The settings on record: Homo sapiens, PMA-differentiated THP-1 cells, compound 60 min before 20 ng/mL LPS for 30 min. The text has this: Materials and Reagents for Measuring Activity in THP-1 Cells: • 1) THP-1 cells (Cell bank of Shanghai) • 2) PMA (Sigma, Cat.No. P1585) • 3) LPS (Sigma, Cat.No. L4516) • 4) 96-well tissue-culture treated plate (Grenier, Cat.No. 655180) • 5) FBS (Thermofisher, Cat.No. 10100147) • 6) Complete EDTA-free protease inhibitor Cocktail (Roche, Cat.No. 4693132001) • 7) PhosSTOP (Roche, Cat.No. 4906845001) • 8) Phosphor-Hsp27 (Ser78) Sandwich Elisa kit (CST, Cat.No. 7295)
Cell Assay Procedure: • 1) Day 0: THP-1 cells are seeded at 50K/well in complete media (1640+10% FBS+50 μM β-ME)+20 ng/mL PMA in 96-well plate • 2) Day 1: PMA containing media is removed after 24 h incubation (37° C./5% CO2), and replaced with complete growth media. Cells are incubated an additional 48 h to recover. • 3) Day 3: Cells are incubated with or without compounds at indicated concentrations for 60 min, prior to addition of 20 ng/mL LPS. Cells are stimulated for 30 min with LPS, washed 1× with ice cold PBS, lysed on ice in Lysis buffer provided in ELISA kit with Roche protease & phosphatase inhibitors. Extracts are clarified by refrigerated centrifugation & stored at −80° C. until pHsp27/total Hsp27 ELISAs • 4) Day 3 or Day 4: Cell Signaling Technology ELISA is run for pSer78-Hsp27 on lysates diluted to approximately 2.5 μg/well. • 5) The absorbance at 450 nm was read in a SpectraMax plus plate reader (Molecular Devices). Data was processed using GraphPad prism 8.0.
For orientation: An ELISA detects its analyte on a solid surface through an enzyme-linked reagent.

Test [1] concerns the target T1, MAPKAPK2 Recombinant Human Protein (Homo sapiens, UniProt P49137).
T1 construct: purchased ThermoFisher pv3317
The experiment in a line: MK2 kinase assay (Z'-LYTE kinase assay kit). The settings on record: inhibition of MK2 biochemical activity; 90 min incubation at room temperature. As for the experimental part: Materials and Reagents for Measuring Inhibition of MK2 Biochemical Activity: • 1) Assay plate: 384 Well Low Volume Black Round Bottom Polystyrene NBS Microplate (Corning, Cat.No. 4514) • 2) MK2 kinase assay kit: Z' LYTE KINASE ASSAY KIT (ThermoFisher, Cat.No. pv3177) • 3) MAPKAPK2 Recombinant Human Protein (ThermoFisher, Cat.No. pv3317) • 4) DMSO (Vetec, Cat.No. V900090) • 5) DTT (Sigma, Cat.No. D0632)
MK2 Kinase Assay Procedure: • 1) Dispense 5 μl Kinase/Peptide Mixture to each wells of 384-well plate • 2) Add 2.5 μl 4× Test Compound to each well • 3) Add 2.5 μl 4× ATP Solution to each well • 4) After 90 minutes incubation at room temperature, add 5 μl Development Solution to each well • 5) After 60 minutes incubation at room temperature, add 5 μl stop Solution to each well • 6) Measure the Coumarin (Ex. 400 nm, Em. 445 nm) and Fluorescein (Ex. 400 nm, Em. 520 nm) emission signals on an Envision plate reader (PerkinElmer)

T1 sequence (P49137 whole entry): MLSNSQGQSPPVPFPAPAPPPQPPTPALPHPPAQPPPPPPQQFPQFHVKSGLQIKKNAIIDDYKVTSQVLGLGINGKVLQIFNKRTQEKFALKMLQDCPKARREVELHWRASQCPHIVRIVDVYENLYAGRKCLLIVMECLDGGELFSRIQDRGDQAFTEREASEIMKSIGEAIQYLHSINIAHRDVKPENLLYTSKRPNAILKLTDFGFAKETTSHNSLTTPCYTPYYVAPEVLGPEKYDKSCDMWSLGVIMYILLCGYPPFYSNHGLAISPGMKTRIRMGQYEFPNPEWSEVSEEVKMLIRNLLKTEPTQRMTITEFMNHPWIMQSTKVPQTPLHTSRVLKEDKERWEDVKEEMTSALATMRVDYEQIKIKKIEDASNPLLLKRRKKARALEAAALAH

Consider `N#Cc1ccc(-c2cc3n(c2)Cc2cc(N4C[C@H]5CNC[C@H]5C4=O)ccc2-n2ccnc2-3)cc1` (relative stereo) [Example 30, cis-4-(7-(1-oxohexahydropyrrolo[3,4-c]pyrrol-2(1H)-yl)-9H-benzo[e]imidazo [2,1-c]pyrrolo[1,2-a][1,4]diazepin-12-yl)benzonitrile], for which the figures for the pIC50 (with THP-1 cells; in test [1]) were 6.52 to 6.70 and 7.00 to 7.30, respectively.
Turning to `CC(C)(N)[C@@H]1CN(c2ccc3c(c2)Cn2cc(-c4ccc(C#N)cc4)cc2-c2nccn2-3)C(=O)O1` (single isomer, unassigned) [Example 21], the negative logarithm of the IC50 (pIC50) (with THP-1 cells; in test [1]) was more than 7.30 in each case.
Regarding `CN(C)C[C@H]1CCN(c2ccc3c(c2)Cn2cc(-c4ccc(C#N)cc4)cc2-c2nccn2-3)C1=O` (single isomer, unassigned) [Example 35], the pIC50 (in the test with THP-1 cells; in test [1]) was more than 7.30 in each case.
Regarding `CN(C)C[C@@H]1CCN(c2ccc3c(c2)Cn2cc(-c4ccc(C#N)cc4)cc2-c2nccn2-3)C1=O` (single isomer, unassigned) [Example 36], the negative-log IC50 (pIC50) (in the test on THP-1 cells; in test [1]) was more than 7.30 in each case.
`CN(C)CC[C@H]1CCN(c2ccc3c(c2)Cn2cc(-c4ccc(C#N)cc4)cc2-c2nccn2-3)C1=O` (single isomer, unassigned) [Example 41]: the pIC50 (in the test with THP-1 cells; in test [1]) was more than 7.30 throughout.
Regarding `CN(C)CC[C@@H]1CCN(c2ccc3c(c2)Cn2cc(-c4ccc(C#N)cc4)cc2-c2nccn2-3)C1=O` (single isomer, unassigned) [Example 42], the negative-log IC50 (pIC50) (with THP-1 cells; in test [1]) was more than 7.30 each time.
`CN(C)CC1CC(=O)N(c2cc3c(cc2F)-n2ccnc2-c2cc(-c4ccc(C#N)cc4)cn2C3)C1` (stereo in doubt) [Example 91]: the pIC50 in the test with THP-1 cells is 6.40 to 6.52; in test [1], 7.00 to 7.30.
With `CN(C)C[C@@H]1CN(c2ccc3c(c2)Cn2cc(-c4ccc(C#N)cc4)cc2-c2nccn2-3)C(=O)O1` [Example 1, (R)-4-(7-(5-((Dimethylamino)methyl)-2-oxooxazolidin-3-yl)-9H-benzo [e]imidazo[2,1-c]pyrrolo[1,2-a][1,4]diazepin-12-yl)benzonitrile], the negative-log IC50 (pIC50) (in the test with THP-1 cells; in test [1]) was more than 7.30 each time.
In the case of `CNC[C@@H]1CN(c2ccc3c(c2)Cn2cc(-c4ccc(C#N)cc4)cc2-c2nccn2-3)C(=O)O1` [Example 3], the pIC50 (with THP-1 cells; in test [1]) was more than 7.30 each time.
For `CC(C)(C)NC[C@@H]1CN(c2ccc3c(c2)Cn2cc(-c4ccc(C#N)cc4)cc2-c2nccn2-3)C(=O)O1` [Example 4], the negative-log IC50 (pIC50) (with THP-1 cells; in test [1]) was more than 7.30 throughout.
Turning to `N#Cc1ccc(-c2cc3n(c2)Cc2cc(N4C[C@@H](CN5CCC5)OC4=O)ccc2-n2ccnc2-3)cc1` [Example 5], the negative-log IC50 (pIC50) (with THP-1 cells; in test [1]) was more than 7.30 throughout.
`CC1(C)CCN1C[C@@H]1CN(c2ccc3c(c2)Cn2cc(-c4ccc(C#N)cc4)cc2-c2nccn2-3)C(=O)O1` [Example 6, (R)-4-(7-(5-((2,2-Dimethylazetidin-1-yl)methyl)-2-oxooxazolidin-3-yl)-9H-benzo[e]imidazo[2,1-c]pyrrolo[1,2-a][1,4]diazepin-12-yl)benzonitrile]: the negative logarithm of the IC50 (pIC50) (with THP-1 cells; in test [1]) was more than 7.30 throughout.
As for `CN(C)C[C@H]1CC(=O)N(c2ccc3c(c2)Cn2cc(-c4ccc(C#N)cc4)cc2-c2nccn2-3)C1` [Example 7, (R)-4-(7-(4-((Dimethylamino)methyl)-2-oxopyrrolidin-1-yl)-9H-benzo[e]imidazo[2,1-c]pyrrolo[1,2-a][1,4]diazepin-12-yl)benzonitrile], the negative logarithm of the IC50 (pIC50) (in the test on THP-1 cells; in test [1]) was more than 7.30 each time.
As for `N#Cc1ccc(-c2cc3n(c2)Cc2cc(N4C[C@@H](CN)CC4=O)ccc2-n2ccnc2-3)cc1` [Example 8], the pIC50 is 6.40 to 6.52 in the test with THP-1 cells and more than 7.30 in test [1].
On to `CNC[C@H]1CC(=O)N(c2ccc3c(c2)Cn2cc(-c4ccc(C#N)cc4)cc2-c2nccn2-3)C1` [Example 9], for which the pIC50 in the test on THP-1 cells is 7.00 to 7.30; in test [1] it was more than 7.30.
Regarding `CCNC[C@H]1CC(=O)N(c2ccc3c(c2)Cn2cc(-c4ccc(C#N)cc4)cc2-c2nccn2-3)C1` [Example 10], the negative-log IC50 (pIC50) in the test with THP-1 cells was 6.70 to 7.00; in test [1] it was more than 7.30.
For `CN(CCO)C[C@H]1CC(=O)N(c2ccc3c(c2)Cn2cc(-c4ccc(C#N)cc4)cc2-c2nccn2-3)C1` [Example 11], in that order: 6.70 to 7.00 and 7.00 to 7.30.
With `CC(C)NC[C@H]1CC(=O)N(c2ccc3c(c2)Cn2cc(-c4ccc(C#N)cc4)cc2-c2nccn2-3)C1` [Example 12], the pIC50 with THP-1 cells was 6.70 to 7.00; in test [1], more than 7.30.
Turning to `CC(C)(C)NC[C@H]1CC(=O)N(c2ccc3c(c2)Cn2cc(-c4ccc(C#N)cc4)cc2-c2nccn2-3)C1` [Example 13], the pIC50 with THP-1 cells is 6.70 to 7.00; in test [1] it was more than 7.30.
Turning to `N#Cc1ccc(-c2cc3n(c2)Cc2cc(N4C[C@@H](CNC5COC5)CC4=O)ccc2-n2ccnc2-3)cc1` [Example 14], the negative-log IC50 (pIC50) in the test with THP-1 cells was 6.70 to 7.00; in test [1] it was 7.00 to 7.30.
As to `N#Cc1ccc(-c2cc3n(c2)Cc2cc(N4C[C@@H](CNC5CC5)CC4=O)ccc2-n2ccnc2-3)cc1` [Example 15], the pIC50 (with THP-1 cells; in test [1]) was more than 7.30 each time.
Regarding `N#Cc1ccc(-c2cc3n(c2)Cc2cc(N4C[C@@H](CNC5(CO)CC5)CC4=O)ccc2-n2ccnc2-3)cc1` [Example 16], the pIC50 with THP-1 cells is 6.30 to 6.40; in test [1], 7.00 to 7.30.
Consider `CN(C)C[C@@H]1CC(=O)N(c2ccc3c(c2)Cn2cc(-c4ccc(C#N)cc4)cc2-c2nccn2-3)C1` [Example 17, (S)-4-(7-(4-((Dimethylamino)methyl)-2-oxopyrrolidin-1-yl)-9H-benzo[e]imidazo[2,1-c]pyrrolo[1,2-a][1,4]diazepin-12-yl)benzonitrile], for which the values for the pIC50 (in the test on THP-1 cells; in test [1]) were 6.52 to 6.70 and 7.00 to 7.30, respectively.
On to `CC1(C)CCN1C[C@H]1CC(=O)N(c2ccc3c(c2)Cn2cc(-c4ccc(C#N)cc4)cc2-c2nccn2-3)C1` [Example 19], for which the pIC50 in the test with THP-1 cells is 7.00 to 7.30; in test [1], more than 7.30.
As to `N#Cc1ccc(-c2cc3n(c2)Cc2cc(N4CC5(CNC5)CC4=O)ccc2-n2ccnc2-3)cc1` [Example 22, 4-(7-(7-Oxo-2,6-diazaspiro[3.4]octan-6-yl)-9H-benzo[e]imidazo[2,1-c]pyrrolo [1,2-a][1,4]diazepin-12-yl)benzonitrile], the negative-log IC50 (pIC50) in the test with THP-1 cells was 5.82 to 6.00; in test [1], more than 7.30.
`CN1CC2(CC(=O)N(c3ccc4c(c3)Cn3cc(-c5ccc(C#N)cc5)cc3-c3nccn3-4)C2)C1` [Example 23, 4-(7-(2-Methyl-7-oxo-2,6-diazaspiro[3.4]octan-6-yl)-9H-benzo[e]imidazo [2,1-c]pyrrolo[1,2-a][1,4]diazepin-12-yl)benzonitrile]: the figures for the pIC50 (with THP-1 cells; in test [1]) were 6.52 to 6.70 and more than 7.30, respectively.
Consider `CNC[C@@H]1CCN1C(=O)c1ccc2c(c1)Cn1cc(-c3ccc(C#N)cc3)cc1-c1nccn1-2` [Example 137, (S)-4-(7-(2-((Methylamino)methyl)azetidine-1-carbonyl)-9H-benzo[e]imidazo [2,1-c]pyrrolo[1,2-a][1,4]diazepin-12-yl)benzonitrile], for which, in the test on THP-1 cells, the pIC50 is 6.52 to 6.70.
